Assay results published in ChEMBL document CHEMBL1201861, “Genomics of Drug Sensitity in Cancer screening data, Wellcome Trust Sanger Institute”.

Legend:
Test in all cases: cells
Type in all cases: functional, cell-based, Homo sapiens
CaR-1 = settings: Homo sapiens, CaR-1;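 note: growth inhibition of human CaR-1 cancer cells, read out with a cell viability assay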
Description: SANGER: Inhibition of human CaR-1 cell growth in a cell viability assay.

HT55 = settings: Homo sapiens, HT55;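 note: cell viability readout measuring growth inhibition of human HT55 cells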
Description: SANGER: Inhibition of human HT55 cell growth in a cell viability assay.

HN = settings: Homo sapiens, HN
Description: SANGER: Inhibition of human HN cell growth in a cell viability assay.

NB14 = settings: Homo sapiens, NB14;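 note: growth inhibition of NB14 cells measured with a cell viability assay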
Description: SANGER: Inhibition of human NB14 cell growth in a cell viability assay.

MC-IXC = settings: Homo sapiens, MC-IXC;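 note: growth inhibition of MC-IXC cells, read out with a cell viability assay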
Description: SANGER: Inhibition of human MC-IXC cell growth in a cell viability assay.

NCI-H2122 = settings: Homo sapiens, NCI-H2122;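 note: growth inhibition of the cells, read out with a cell viability assay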
Description: SANGER: Inhibition of human NCI-H2122 cell growth in a cell viability assay.

NCI-H1792 = settings: Homo sapiens, NCI-H1792;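 note: growth inhibition of human NCI-H1792 cells, read out as cell viability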
Description: SANGER: Inhibition of human NCI-H1792 cell growth in a cell viability assay.

UMUC3 = settings: Homo sapiens, UMUC3;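 note: growth inhibition of human UM-UC-3 cells, read out with a cell viability assay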
Description: SANGER: Inhibition of human UM-UC-3 cell growth in a cell viability assay.

Hs-578T = settings: Homo sapiens, Hs-578T
Description: SANGER: Inhibition of human Hs-578-T cell growth in a cell viability assay.

COLO-792 = settings: Homo sapiens, COLO-792
Description: SANGER: Inhibition of human COLO-792 cell growth in a cell viability assay.

HOS = settings: Homo sapiens, HOS;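 note: growth inhibition of human HOS cells, read out with a cell viability assay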
Description: SANGER: Inhibition of human HOS cell growth in a cell viability assay.

SW-620 = settings: Homo sapiens, SW-620;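 note: growth inhibition of human SW-620 cells, measured by a cell viability assay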
Description: SANGER: Inhibition of human SW620 cell growth in a cell viability assay.

SK-OV-3 = settings: Homo sapiens, SK-OV-3;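 note: growth inhibition of SK-OV-3 human cells, read out with a cell viability assay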
Description: SANGER: Inhibition of human SK-OV-3 cell growth in a cell viability assay.

COLO-680N = settings: Homo sapiens, COLO-680N;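 note: cell viability assay used to measure inhibition of COLO-680N cell growth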
Description: SANGER: Inhibition of human COLO-680N cell growth in a cell viability assay.

FaDu = settings: Homo sapiens, FaDu;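 note: cell viability readout of growth inhibition in FaDu cells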
Description: SANGER: Inhibition of human FADU cell growth in a cell viability assay.

NCI-H1623 = settings: Homo sapiens, NCI-H1623;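 note: cell viability assay used as the read-out for growth inhibition of NCI-H1623 cells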
Description: SANGER: Inhibition of human NCI-H1623 cell growth in a cell viability assay.

Capan-2 = settings: Homo sapiens, Capan-2;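 note: Capan-2 cell growth inhibition, read out with a viability assay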
Description: SANGER: Inhibition of human Capan-2 cell growth in a cell viability assay.

HCC1954 = settings: Homo sapiens, HCC1954;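 note: growth inhibition of human HCC1954 cells, read out with a cell viability assay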
Description: SANGER: Inhibition of human HCC1954 cell growth in a cell viability assay.

GMS-10 = settings: Homo sapiens, GMS-10;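 note: growth inhibition of GMS-10 cells, read out as cell viability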
Description: SANGER: Inhibition of human GMS-10 cell growth in a cell viability assay.

CAL-12T = settings: Homo sapiens, CAL-12T;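 note: growth inhibition of human CAL-12T cells, read out with a cell viability assay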
Description: SANGER: Inhibition of human CAL-12T cell growth in a cell viability assay.

A2780 = settings: Homo sapiens, A2780;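 note: growth inhibition of A2780 cells, read out with a cell viability assay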
Description: SANGER: Inhibition of human A2780 cell growth in a cell viability assay.

KYSE-180 = settings: Homo sapiens, KYSE-180;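 note: growth inhibition of KYSE-180 cells, read out with a cell viability assay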
Description: SANGER: Inhibition of human KYSE-180 cell growth in a cell viability assay.

MDA-MB-157 = settings: Homo sapiens, MDA-MB-157
Description: SANGER: Inhibition of human MDA-MB-157 cell growth in a cell viability assay.

ChaGo-K-1 = settings: Homo sapiens, ChaGo-K-1;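 note: growth inhibition of ChaGo-K-1 cells, read out with a cell viability assay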
Description: SANGER: Inhibition of human ChaGo-K-1 cell growth in a cell viability assay.

G-401 = settings: Homo sapiens, G-401
Description: SANGER: Inhibition of human G-401 cell growth in a cell viability assay.

OE19 = settings: Homo sapiens, OE19;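 note: growth inhibition of OE19 cells, measured through a cell viability read-out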
Description: SANGER: Inhibition of human OE19 cell growth in a cell viability assay.

NCI-H1693 = settings: Homo sapiens, NCI-H1693;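 note: growth inhibition of the human cell line, read out with a cell viability assay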
Description: SANGER: Inhibition of human NCI-H1693 cell growth in a cell viability assay.

DMS-273 = settings: Homo sapiens, DMS-273
Description: SANGER: Inhibition of human DMS-273 cell growth in a cell viability assay.

T-24 = settings: Homo sapiens, T-24;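 note: growth inhibition of T-24 cells, read out with a cell viability assay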
Description: SANGER: Inhibition of human T-24 cell growth in a cell viability assay.

HT-1080 = settings: Homo sapiens, HT-1080
Description: SANGER: Inhibition of human HT-1080 cell growth in a cell viability assay.

NCI-H522 = settings: Homo sapiens, NCI-H522;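 note: cell viability assay measuring growth inhibition of human NCI-H522 cells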
Description: SANGER: Inhibition of human NCI-H522 cell growth in a cell viability assay.

CAL-54 = settings: Homo sapiens, CAL-54;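 note: growth inhibition of CAL-54 cells, read out by a viability measurement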
Description: SANGER: Inhibition of human CAL-54 cell growth in a cell viability assay.

KYSE-450 = settings: Homo sapiens, KYSE-450;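 note: cell growth inhibition measured by a viability assay in human KYSE-450 cells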
Description: SANGER: Inhibition of human KYSE-450 cell growth in a cell viability assay.

NCI-H460 = settings: Homo sapiens, NCI-H460;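 note: cell viability assay scoring growth inhibition of human NCI-H460 cells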
Description: SANGER: Inhibition of human NCI-H460 cell growth in a cell viability assay.

NCI-H1703 = settings: Homo sapiens, NCI-H1703;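 note: growth inhibition of NCI-H1703 cells, read out via a cell viability assay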
Description: SANGER: Inhibition of human NCI-H1703 cell growth in a cell viability assay.

RVH-421 = settings: Homo sapiens, RVH-421
Description: SANGER: Inhibition of human RVH-421 cell growth in a cell viability assay.

NCI-H64 = settings: Homo sapiens, NCI-H64;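 note: growth inhibition of NCI-H64 cells, read out with a cell viability assay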
Description: SANGER: Inhibition of human NCI-H64 cell growth in a cell viability assay.

LU-165 = settings: Homo sapiens, LU-165
Description: SANGER: Inhibition of human LU-165 cell growth in a cell viability assay.

DMS-153 = settings: Homo sapiens, DMS-153
Description: SANGER: Inhibition of human DMS-153 cell growth in a cell viability assay.

SNU-16 = settings: Homo sapiens, SNU-16;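 note: growth inhibition of human SNU-16 cells, determined with a cell viability readout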
Description: SANGER: Inhibition of human NCI-SNU-16 cell growth in a cell viability assay.

WSU-NHL = settings: Homo sapiens, WSU-NHL;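 note: growth inhibition of human WSU-NHL cells, read out with a cell viability assay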
Description: SANGER: Inhibition of human WSU-NHL cell growth in a cell viability assay.

BC-3 = settings: Homo sapiens, BC-3;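 note: cell viability assay measuring growth inhibition of human BC-3 cells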
Description: SANGER: Inhibition of human BC-3 cell growth in a cell viability assay.

NCI-H2196 = settings: Homo sapiens, NCI-H2196;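 note: cell viability assay used as the readout of growth inhibition in NCI-H2196 cells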
Description: SANGER: Inhibition of human NCI-H2196 cell growth in a cell viability assay.

NCI-H2141 = settings: Homo sapiens, NCI-H2141;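 note: growth inhibition of human NCI-H2141 cells, read out with a cell viability assay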
Description: SANGER: Inhibition of human NCI-H2141 cell growth in a cell viability assay.

EHEB = settings: Homo sapiens, EHEB;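 note: growth inhibition of human EHEB cells, read out with a cell viability assay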
Description: SANGER: Inhibition of human EHEB cell growth in a cell viability assay.

NB1 = settings: Homo sapiens, NB1
Description: SANGER: Inhibition of human NB1 cell growth in a cell viability assay.

KARPAS-422 = settings: Homo sapiens, KARPAS-422
Description: SANGER: Inhibition of human KARPAS-422 cell growth in a cell viability assay.

SMILES: CC(C)c1ccccc1Cc1cc(C(=O)Nc2ccc(S(=O)(=O)c3ccccc3C(C)(C)C)cc2)c(O)c(O)c1O
- IC50 (CaR-1): 5930 nM
- IC50 (HT55): 651 nM
- IC50 (HN): 231 nM
- IC50 (NB14): 76.4 nM
- IC50 (MC-IXC): 75.3 nM
- IC50 (NCI-H2122): 538 nM
- IC50 (NCI-H1792): 690 nM
- IC50 (UMUC3): 163 nM
- IC50 (Hs-578T): 23.6 nM
- IC50 (COLO-792): 247 nM
- IC50 (HOS): 84.7 nM
- IC50 (SW-620): 961 nM
- IC50 (SK-OV-3): 527 nM
- IC50 (COLO-680N): 1430 nM
- IC50 (FaDu): 526 nM
- IC50 (NCI-H1623): 595 nM
- IC50 (Capan-2): 6040 nM
- IC50 (HCC1954): 894 nM
- IC50 (GMS-10): 443 nM
- IC50 (CAL-12T): 1120 nM
- IC50 (A2780): 218 nM
- IC50 (KYSE-180): 185 nM
- IC50 (MDA-MB-157): 841 nM
- IC50 (ChaGo-K-1): 296 nM
- IC50 (G-401): 460 nM
- IC50 (OE19): 5980 nM
- IC50 (NCI-H1693): 1250 nM
- IC50 (DMS-273): 100 nM
- IC50 (T-24): 295 nM
- IC50 (HT-1080): 256 nM
- IC50 (NCI-H522): 2080 nM
- IC50 (CAL-54): 161 nM
- IC50 (KYSE-450): 175 nM
- IC50 (NCI-H460): 306 nM
- IC50 (NCI-H1703): 217 nM
- IC50 (RVH-421): 253 nM

SMILES: Cc1cc([N+](=O)[O-])ccc1NS(=O)(=O)c1cc(Cl)ccc1Cl
- IC50 (CaR-1): > 32000 nM
- IC50 (HT55): > 32000 nM
- IC50 (HN): > 32000 nM
- IC50 (NCI-H64): > 32000 nM
- IC50 (MC-IXC): 2510 nM
- IC50 (NCI-H2122): 1170 nM
- IC50 (NCI-H1792): 8530 nM
- IC50 (UMUC3): 1670 nM
- IC50 (LU-165): > 32000 nM
- IC50 (Hs-578T): 11500 nM
- IC50 (COLO-792): 2010 nM
- IC50 (HOS): 2530 nM
- IC50 (SW-620): 3930 nM
- IC50 (SK-OV-3): 9130 nM
- IC50 (COLO-680N): 12500 nM
- IC50 (FaDu): 4280 nM
- IC50 (NCI-H1623): > 32000 nM
- IC50 (Capan-2): 8170 nM
- IC50 (DMS-153): 29100 nM
- IC50 (HCC1954): 3620 nM
- IC50 (GMS-10): 20100 nM
- IC50 (CAL-12T): 1020 nM
- IC50 (A2780): 5490 nM
- IC50 (KYSE-180): 3130 nM
- IC50 (SNU-16): > 32000 nM
- IC50 (MDA-MB-157): 8590 nM
- IC50 (ChaGo-K-1): 4120 nM
- IC50 (WSU-NHL): 11800 nM
- IC50 (G-401): 861 nM
- IC50 (OE19): 3780 nM
- IC50 (NCI-H1693): > 32000 nM
- IC50 (BC-3): 8380 nM
- IC50 (NCI-H2196): > 32000 nM
- IC50 (DMS-273): 719 nM
- IC50 (T-24): > 32000 nM
- IC50 (HT-1080): 675 nM
- IC50 (NCI-H522): 1400 nM
- IC50 (NCI-H2141): > 32000 nM
- IC50 (EHEB): 9790 nM
- IC50 (NB1): 8380 nM
- IC50 (CAL-54): 5440 nM
- IC50 (KYSE-450): 6370 nM
- IC50 (KARPAS-422): 8260 nM
- IC50 (NCI-H460): 3660 nM
- IC50 (NCI-H1703): 3290 nM
- IC50 (RVH-421): 931 nM

SMILES: N#Cc1c(O)c2c(-c3ccc(-c4ccccc4O)cc3)csc2[nH]c1=O
- IC50 (CaR-1): > 1020 nM
- IC50 (HT55): > 1020 nM
- IC50 (HN): > 1020 nM
- IC50 (NCI-H64): > 1020 nM
- IC50 (MC-IXC): > 1020 nM
- IC50 (NCI-H2122): > 1020 nM
- IC50 (NCI-H1792): > 1020 nM
- IC50 (UMUC3): > 1020 nM
- IC50 (LU-165): > 1020 nM
- IC50 (Hs-578T): > 1020 nM
- IC50 (COLO-792): > 1020 nM
- IC50 (HOS): > 1020 nM
- IC50 (SW-620): > 1020 nM
- IC50 (SK-OV-3): > 1020 nM
- IC50 (COLO-680N): > 1020 nM
- IC50 (FaDu): > 1020 nM
- IC50 (NCI-H1623): > 1020 nM
- IC50 (Capan-2): > 1020 nM
- IC50 (DMS-153): 373 nM
- IC50 (HCC1954): > 1020 nM
- IC50 (GMS-10): > 1020 nM
- IC50 (CAL-12T): > 1020 nM
- IC50 (A2780): > 1020 nM
- IC50 (KYSE-180): > 1020 nM
- IC50 (SNU-16): > 1020 nM
- IC50 (MDA-MB-157): 824 nM
- IC50 (ChaGo-K-1): > 1020 nM
- IC50 (WSU-NHL): 297 nM
- IC50 (G-401): > 1020 nM
- IC50 (OE19): > 1020 nM
- IC50 (NCI-H1693): > 1020 nM
- IC50 (BC-3): > 1020 nM
- IC50 (NCI-H2196): 248 nM
- IC50 (DMS-273): > 1020 nM
- IC50 (T-24): > 1020 nM
- IC50 (HT-1080): > 1020 nM
- IC50 (NCI-H522): > 1020 nM
- IC50 (NCI-H2141): 633 nM
- IC50 (EHEB): 63.3 nM
- IC50 (NB1): > 1020 nM
- IC50 (CAL-54): > 1020 nM
- IC50 (KYSE-450): > 1020 nM
- IC50 (KARPAS-422): 344 nM
- IC50 (NCI-H460): > 1020 nM
- IC50 (NCI-H1703): > 1020 nM
- IC50 (RVH-421): > 1020 nM
